We go through one compound from article PMC6197228, “Inhibition of TBK1/IKKε Promotes Regeneration of Pancreatic β-cells” (Scientific Reports, 2018).

By IC50 is commonly meant the concentration needed to halve the response being measured. High values mean lower potency, low ones higher potency.

Common to all, as to assay type: biochemical
One experiment addresses T1, IKKβ (Homo sapiens, UniProt O14920).
T1 construct: gene IKBKB
T1 sequence (O14920 1-756): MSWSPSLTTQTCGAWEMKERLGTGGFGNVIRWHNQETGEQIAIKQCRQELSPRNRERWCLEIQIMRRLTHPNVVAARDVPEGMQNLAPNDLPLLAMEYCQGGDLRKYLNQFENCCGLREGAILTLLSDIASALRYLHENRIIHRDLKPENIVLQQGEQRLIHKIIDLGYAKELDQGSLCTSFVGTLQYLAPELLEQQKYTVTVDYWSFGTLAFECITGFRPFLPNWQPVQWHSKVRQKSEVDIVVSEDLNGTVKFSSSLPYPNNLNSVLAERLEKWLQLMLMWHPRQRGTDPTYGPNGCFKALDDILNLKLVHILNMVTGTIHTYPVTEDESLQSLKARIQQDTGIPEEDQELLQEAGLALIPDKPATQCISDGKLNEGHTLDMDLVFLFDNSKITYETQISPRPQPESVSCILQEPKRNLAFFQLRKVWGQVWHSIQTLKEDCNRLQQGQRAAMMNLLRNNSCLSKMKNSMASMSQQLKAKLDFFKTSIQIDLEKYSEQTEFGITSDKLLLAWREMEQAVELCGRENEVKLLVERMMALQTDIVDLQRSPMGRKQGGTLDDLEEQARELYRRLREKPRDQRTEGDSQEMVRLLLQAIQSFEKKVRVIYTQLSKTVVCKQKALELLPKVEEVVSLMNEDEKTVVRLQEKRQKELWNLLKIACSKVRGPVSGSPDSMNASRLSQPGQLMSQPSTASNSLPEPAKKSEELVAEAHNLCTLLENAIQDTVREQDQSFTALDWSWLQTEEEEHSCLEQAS
Put plainly: kinase profiling, dose response IC50 (selectivity).

For a further experiment, the target named is T2, IκB kinase ε (IKKε) (Homo sapiens, UniProt Q14164).
T2 construct: gene IKBKE
T2 sequence (Q14164 1-716): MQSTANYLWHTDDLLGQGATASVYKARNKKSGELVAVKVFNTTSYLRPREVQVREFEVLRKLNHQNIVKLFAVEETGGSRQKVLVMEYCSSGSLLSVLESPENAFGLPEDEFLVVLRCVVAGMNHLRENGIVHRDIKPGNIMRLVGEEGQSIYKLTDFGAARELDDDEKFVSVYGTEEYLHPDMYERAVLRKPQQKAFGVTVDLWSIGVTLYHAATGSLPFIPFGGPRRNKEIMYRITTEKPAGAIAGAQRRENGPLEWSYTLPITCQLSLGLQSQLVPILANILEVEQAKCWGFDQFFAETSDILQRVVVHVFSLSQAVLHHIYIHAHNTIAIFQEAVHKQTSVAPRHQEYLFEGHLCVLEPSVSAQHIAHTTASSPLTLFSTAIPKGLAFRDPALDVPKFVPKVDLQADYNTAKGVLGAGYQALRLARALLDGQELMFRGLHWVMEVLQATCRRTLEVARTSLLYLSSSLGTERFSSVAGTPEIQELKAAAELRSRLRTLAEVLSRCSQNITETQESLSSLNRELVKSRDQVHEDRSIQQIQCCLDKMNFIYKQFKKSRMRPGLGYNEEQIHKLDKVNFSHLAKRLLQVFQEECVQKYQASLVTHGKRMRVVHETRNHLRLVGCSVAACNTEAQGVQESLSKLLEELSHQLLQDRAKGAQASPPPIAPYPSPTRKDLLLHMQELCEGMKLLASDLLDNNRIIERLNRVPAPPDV
Description: kinase profiling, dose response IC50.

For experiment [1], the target named is T3, TANK-binding kinase 1 (TBK1) (Homo sapiens, UniProt Q9UHD2).
T3 sequence (Q9UHD2 1-729): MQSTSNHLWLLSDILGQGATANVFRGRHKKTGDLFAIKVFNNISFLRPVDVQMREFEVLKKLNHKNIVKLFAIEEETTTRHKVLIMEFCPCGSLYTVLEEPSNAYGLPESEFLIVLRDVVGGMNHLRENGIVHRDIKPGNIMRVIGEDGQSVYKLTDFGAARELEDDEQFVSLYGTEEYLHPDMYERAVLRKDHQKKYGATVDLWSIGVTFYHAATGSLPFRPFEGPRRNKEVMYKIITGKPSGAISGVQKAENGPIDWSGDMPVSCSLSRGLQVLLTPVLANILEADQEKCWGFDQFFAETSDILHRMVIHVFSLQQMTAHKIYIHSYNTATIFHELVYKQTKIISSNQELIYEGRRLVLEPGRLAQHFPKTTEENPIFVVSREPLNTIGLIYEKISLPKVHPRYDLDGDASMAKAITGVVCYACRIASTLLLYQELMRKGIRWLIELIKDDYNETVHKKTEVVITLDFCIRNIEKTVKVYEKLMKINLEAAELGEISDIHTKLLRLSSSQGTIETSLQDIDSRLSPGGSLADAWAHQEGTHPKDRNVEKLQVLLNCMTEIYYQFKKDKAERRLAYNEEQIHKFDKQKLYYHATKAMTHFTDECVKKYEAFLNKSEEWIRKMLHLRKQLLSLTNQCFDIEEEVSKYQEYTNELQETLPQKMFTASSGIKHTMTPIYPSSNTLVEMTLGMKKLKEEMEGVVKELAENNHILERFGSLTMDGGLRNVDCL
Description: kinase profiling, dose response IC50.

A further experiment addresses T4, IKKα (Homo sapiens, UniProt O15111).
T4 construct: gene CHUK
T4 sequence (O15111 1-745): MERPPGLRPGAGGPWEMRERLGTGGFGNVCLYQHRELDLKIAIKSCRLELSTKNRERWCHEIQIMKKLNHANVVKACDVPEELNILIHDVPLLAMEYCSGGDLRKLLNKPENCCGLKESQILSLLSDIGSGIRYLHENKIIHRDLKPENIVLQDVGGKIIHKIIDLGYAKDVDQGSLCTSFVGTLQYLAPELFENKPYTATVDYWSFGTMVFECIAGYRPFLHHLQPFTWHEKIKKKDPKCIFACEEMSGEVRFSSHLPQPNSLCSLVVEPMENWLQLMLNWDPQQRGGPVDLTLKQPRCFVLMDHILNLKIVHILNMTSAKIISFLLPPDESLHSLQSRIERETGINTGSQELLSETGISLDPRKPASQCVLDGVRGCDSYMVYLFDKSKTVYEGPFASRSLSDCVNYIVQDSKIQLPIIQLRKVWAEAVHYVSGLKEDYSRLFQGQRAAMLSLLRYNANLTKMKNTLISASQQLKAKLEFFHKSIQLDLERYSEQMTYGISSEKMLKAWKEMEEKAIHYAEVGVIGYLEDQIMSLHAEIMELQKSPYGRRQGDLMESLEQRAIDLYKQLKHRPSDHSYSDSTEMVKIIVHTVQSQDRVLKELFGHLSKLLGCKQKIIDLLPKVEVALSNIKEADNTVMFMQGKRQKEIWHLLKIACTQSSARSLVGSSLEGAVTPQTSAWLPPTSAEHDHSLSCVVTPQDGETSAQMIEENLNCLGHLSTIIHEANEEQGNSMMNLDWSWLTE
Description: kinase profiling, dose response IC50 (selectivity).

With `O=C(O)/C=C/c1ccc2noc(-c3ccccc3)c2c1` [PIAA, (E)-3-(3-phenylbenzo[c]isoxazol-5-yl)acrylic acid], the IC50 is 50.5 µM against IKKβ, roughly 1.07 µM on IκB kinase ε (IKKε), 0.4 µM in experiment [1] and 47.2 µM against IKKα.
